This note sets out measurements from paper PMC2442655, “Structure-Activity Relationship and Substrate-Dependent Phenomena in Effects of Ginsenosides on Activities of Drug-Metabolizing P450 Enzymes” (PLoS ONE, 2008).

Structures are written as SMILES. Structures can show the parent of a compound that is named as a salt. Where two headings read alike, the source gives them in different places.

The target of one series is T1, CYP1A2 (Homo sapiens, UniProt P05177).
T1 sequence (P05177 1-516): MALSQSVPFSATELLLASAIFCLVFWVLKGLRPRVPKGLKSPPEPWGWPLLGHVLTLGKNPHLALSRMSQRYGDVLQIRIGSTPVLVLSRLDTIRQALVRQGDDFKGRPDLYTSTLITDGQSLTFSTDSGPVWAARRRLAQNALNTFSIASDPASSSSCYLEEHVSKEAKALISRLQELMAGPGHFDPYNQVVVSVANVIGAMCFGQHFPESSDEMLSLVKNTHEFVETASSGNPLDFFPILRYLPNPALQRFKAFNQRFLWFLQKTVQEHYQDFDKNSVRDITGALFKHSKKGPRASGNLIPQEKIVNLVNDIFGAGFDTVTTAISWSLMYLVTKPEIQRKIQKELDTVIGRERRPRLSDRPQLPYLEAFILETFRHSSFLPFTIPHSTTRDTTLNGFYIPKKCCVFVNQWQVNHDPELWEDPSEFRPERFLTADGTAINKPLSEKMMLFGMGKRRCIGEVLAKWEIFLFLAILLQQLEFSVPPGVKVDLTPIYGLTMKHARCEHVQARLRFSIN
As to the kind of experiment: Vivid CYP1A2 blue fluorescent assay. Conditions: for IC50: IC50 CYP1A2 blue, cDNA-expressed enzyme, Vivid blue substrate 3 µM; for inhibition at 30 min, 50 µM: human. The method, then:
(§1) The inhibition of the catalytic activities of cDNA-expressed human P450 enzymes by ginsenosides was determined using Vivid® P450 screening kits (CYP1A2 blue, CYP2C9 red, CYP2C19 blue, CYP2D6 blue, CYP3A4 green and red) according to the manufacturer's instructions (Invitrogen Corporation; Carlsbad, CA, USA).
(§2) In brief, the assays were carried out in Costar® black-wall 96-well plates with ultra thin clear bottoms (Corning Inc, Corning, NY, USA) in a kinetic assay mode. Stock solutions (10 mM) of ginsenosides in methanol were prepared and diluted to various concentrations (2.5× 100, 50, 10, 5, 1 µM). For each well, 40 µL of solution of test compounds or vehicle was incubated with 50 µL pre-mixture (mixture of BACULOSOMES® reagent, regeneration system and reaction buffer) at 37°C for 20 min. The reaction was initiated by adding 10 µL of a mixture of substrate and NADP^+ per well with a respective concentration of Vivid® substrate (Table 1). The plate was read immediately for fluorescence changes every 0.5 min at 37°C for 30 min using a FlexStation II384 fluorometric plate reader (Molecular Devices, Sunnyvale, CA, USA) with respective excitation and emission wavelengths for each P450 enzyme (Table 1). The final methanol volume in the reaction was less than or equal to 1%.

A further series addresses T2, CYP2C9 (Homo sapiens, UniProt P11712).
T2 construct: purchased Invitrogen Corporation
As to the kind of experiment: Vivid CYP2C9 red fluorescent assay. Type of series: in vitro ADME. Conditions: for inhibition at 30 min, 50 µM: human.

For another series, the target named is CYP2C19 (Homo sapiens, UniProt P33261). In words: Vivid CYP2C19 blue fluorescent assay. Particulars: for inhibition at 30 min, 50 µM: human. The method, then:
as §1, §2

The next series deals with CYP2D6 (Homo sapiens, UniProt P10635). In words: Vivid CYP2D6 blue fluorescent assay. Conditions: for inhibition at 30 min, 50 µM: human. The method, then: as §1, §2
Series [1] addresses T3, CYP3A4 (Homo sapiens, UniProt P08684). As to the kind of experiment: Vivid CYP3A4 green fluorescent assay. Conditions: for inhibition at 30 min, 50 µM: human. The method, then:
as §1, §2

For series [2], the target named is T3, CYP3A4. In words: Vivid CYP3A4 red fluorescent assay. Conditions: for inhibition at 30 min, 50 µM: human, recombinant (cDNA-expressed) CYP3A4 BACULOSOMES, probe Vivid red substrate 3 µM. The method, then: as §1, §2
The mark [3] stands for this setting: recombinant (cDNA-expressed) CYP1A2 BACULOSOMES, probe Vivid blue substrate 3 µM.
The mark [4] stands for this setting: cDNA-expressed enzyme, Vivid red substrate 2 µM, maximum concentration 50 µM, read-out: IC50 CYP2C9 red.
[5] abbreviates: recombinant (cDNA-expressed) CYP2D6 BACULOSOMES, probe Vivid blue substrate 10 µM.
The mark [6] stands for this setting: recombinant (cDNA-expressed) CYP2C9 BACULOSOMES, probe Vivid red substrate 2 µM.
Setting [7] is: recombinant (cDNA-expressed) CYP2C19 BACULOSOMES, probe Vivid blue substrate 10 µM.
Where [8] appears, read: recombinant (cDNA-expressed) CYP3A4 BACULOSOMES, probe Vivid green substrate 2 µM.

Chain of CYP2D6 (P10635 whole entry): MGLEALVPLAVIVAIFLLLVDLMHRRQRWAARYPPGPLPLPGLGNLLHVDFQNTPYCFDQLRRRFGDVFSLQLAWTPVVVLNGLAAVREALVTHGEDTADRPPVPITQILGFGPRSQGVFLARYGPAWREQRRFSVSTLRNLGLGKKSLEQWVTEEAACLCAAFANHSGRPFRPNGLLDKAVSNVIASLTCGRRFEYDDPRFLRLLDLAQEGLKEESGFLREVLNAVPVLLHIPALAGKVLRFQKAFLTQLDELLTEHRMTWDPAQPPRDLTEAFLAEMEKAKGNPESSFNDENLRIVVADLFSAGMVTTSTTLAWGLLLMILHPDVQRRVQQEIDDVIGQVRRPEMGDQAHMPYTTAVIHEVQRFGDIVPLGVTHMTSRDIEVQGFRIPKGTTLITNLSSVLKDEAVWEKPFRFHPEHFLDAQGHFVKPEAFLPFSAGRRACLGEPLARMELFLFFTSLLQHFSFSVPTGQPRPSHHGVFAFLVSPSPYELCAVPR
T2 sequence (P11712 whole entry): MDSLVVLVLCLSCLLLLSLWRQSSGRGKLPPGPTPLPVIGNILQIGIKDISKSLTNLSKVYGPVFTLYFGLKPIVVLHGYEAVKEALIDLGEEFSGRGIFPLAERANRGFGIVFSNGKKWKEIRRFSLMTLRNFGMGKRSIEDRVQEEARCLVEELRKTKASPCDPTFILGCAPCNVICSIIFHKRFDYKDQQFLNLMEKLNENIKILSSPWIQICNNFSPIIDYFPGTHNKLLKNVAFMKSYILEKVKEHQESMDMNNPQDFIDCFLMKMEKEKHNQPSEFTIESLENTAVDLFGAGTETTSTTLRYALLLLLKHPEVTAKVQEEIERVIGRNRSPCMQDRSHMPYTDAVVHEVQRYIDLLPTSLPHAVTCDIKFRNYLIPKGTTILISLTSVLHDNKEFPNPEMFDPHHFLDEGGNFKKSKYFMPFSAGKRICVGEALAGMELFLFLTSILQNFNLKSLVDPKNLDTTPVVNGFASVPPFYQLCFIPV
Chain of CYP2C19 (P33261 whole entry): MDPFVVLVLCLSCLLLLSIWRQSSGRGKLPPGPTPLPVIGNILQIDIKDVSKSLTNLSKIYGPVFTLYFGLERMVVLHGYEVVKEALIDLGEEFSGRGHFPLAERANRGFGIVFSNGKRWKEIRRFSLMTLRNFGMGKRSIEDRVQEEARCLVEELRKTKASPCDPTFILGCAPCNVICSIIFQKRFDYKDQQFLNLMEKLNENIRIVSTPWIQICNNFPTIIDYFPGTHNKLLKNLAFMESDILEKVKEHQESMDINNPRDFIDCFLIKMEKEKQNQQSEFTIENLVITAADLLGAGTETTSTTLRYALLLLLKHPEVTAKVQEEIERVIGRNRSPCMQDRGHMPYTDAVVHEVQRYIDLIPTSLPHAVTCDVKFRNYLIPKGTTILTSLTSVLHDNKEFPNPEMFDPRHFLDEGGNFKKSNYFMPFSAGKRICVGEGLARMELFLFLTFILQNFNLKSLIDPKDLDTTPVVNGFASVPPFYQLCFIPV
T3 sequence (P08684 whole entry): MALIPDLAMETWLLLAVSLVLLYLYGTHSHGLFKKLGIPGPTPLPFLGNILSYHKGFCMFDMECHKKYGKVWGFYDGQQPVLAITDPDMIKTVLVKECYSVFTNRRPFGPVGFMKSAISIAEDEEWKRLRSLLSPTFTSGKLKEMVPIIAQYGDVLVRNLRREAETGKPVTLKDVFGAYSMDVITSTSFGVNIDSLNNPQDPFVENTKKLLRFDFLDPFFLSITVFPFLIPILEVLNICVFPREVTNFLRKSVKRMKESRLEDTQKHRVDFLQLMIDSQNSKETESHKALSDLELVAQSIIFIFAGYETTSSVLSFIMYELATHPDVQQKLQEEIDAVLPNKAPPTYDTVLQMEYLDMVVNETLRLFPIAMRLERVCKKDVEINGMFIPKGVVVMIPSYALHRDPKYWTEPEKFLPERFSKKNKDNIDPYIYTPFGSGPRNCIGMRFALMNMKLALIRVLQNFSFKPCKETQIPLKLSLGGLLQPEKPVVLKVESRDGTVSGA
Experimental for CYP2C9: In brief, the assays were carried out in Costar® black-wall 96-well plates with ultra thin clear bottoms (Corning Inc, Corning, NY, USA) in a kinetic assay mode. […] For each well, 40 µL of solution of test compounds or vehicle was incubated with 50 µL pre-mixture (mixture of BACULOSOMES® reagent, regeneration system and reaction buffer) at 37°C for 20 min. […] The final methanol volume in the reaction was less than or equal to 1%.

For orientation: IC50 means the concentration that gives 50% inhibition. As usually defined, the inhibition is the drop in the measured response relative to a control, in per cent. As for `CC(C)(O)CCC[C@@](C)(O)[C@H]1CC[C@]2(C)[C@@H]1[C@H](O)C[C@@H]1[C@@]3(C)CC[C@H](O)C(C)(C)[C@@H]3[C@@H](O)C[C@]12C` [20(R)-25-OH-PPT], the IC50 against CYP1A2 is above 100 µM; at CYP2C9 (setting [4]), 8.5 µM; at CYP2C19, 43.9 µM; against CYP2D6, above 50 µM; on CYP3A4 [1], 27.2 µM. Further, the inhibition at 30 min, 50 µM turned out to be 16.9% at CYP1A2 (setting [3]) and 10% at CYP2D6 (setting [5]). The “Effect on CYP3A4 catalytic activity, Vivid red assay” value on CYP3A4 [2] (red substrate) is recorded as “activated the catalytic activity of CYP3A4”.
With `CC(C)=CCC[C@@](C)(O)[C@H]1CC[C@]2(C)[C@@H]1[C@H](O)C[C@@H]1[C@@]3(C)CC[C@H](O)C(C)(C)[C@@H]3CC[C@]12C` [20(R)-PPD], the IC50 against CYP1A2 was above 100 µM; on CYP2C9 (setting [4]), 6.7 µM; against CYP2C19, 19.2 µM; against CYP2D6 it was above 50 µM; at CYP3A4 [1], 10.3 µM; against CYP3A4 [2], 58.6 µM. In addition, the inhibition at 30 min, 50 µM at CYP1A2 (setting [3]) was 17.1%; on CYP2D6 (setting [5]) it was 34.9%.
For the molecule `CC(C)=CCC[C@](C)(O[C@@H]1O[C@H](CO)[C@@H](O)[C@H](O)[C@H]1O)[C@H]1CC[C@]2(C)[C@@H]1[C@H](O)C[C@@H]1[C@@]3(C)CC[C@H](O)C(C)(C)[C@@H]3CC[C@]12C` [C-K, ginsenoside Compound K], the IC50 on CYP1A2 is 23.8 µM; on CYP2C9 (setting [4]) it was 9.1 µM; at CYP2C19, 45.9 µM; on CYP2D6, above 50 µM; against CYP3A4 [1] it was 30.5 µM; against CYP3A4 [2], 9.1 µM. For the same molecule, on CYP2D6 (setting [5]), the inhibition at 30 min, 50 µM was determined as 49.4%.
For the molecule `CC(C)=CCC[C@](C)(O)[C@H]1CC[C@]2(C)[C@@H]1[C@H](O)C[C@@H]1[C@@]3(C)CC[C@H](O)C(C)(C)[C@@H]3[C@@H](O)C[C@]12C` [PPT, protopanaxatriol], the IC50 against CYP1A2 is above 100 µM; at CYP2C9 (setting [4]), 31.6 µM; against CYP2C19, 46.9 µM; against CYP2D6, above 50 µM; against CYP3A4 [1], 7.4 µM; against CYP3A4 [2] it was above 100 µM. The values for the inhibition at 30 min, 50 µM on CYP1A2 (setting [3]), on CYP2D6 (setting [5]) and on CYP3A4 [2] were 13.1%, 18.9% and 39.4%, respectively.
Consider `CC(C)=CCC[C@](C)(O[C@@H]1O[C@H](CO[C@@H]2O[C@H](CO)[C@@H](O)[C@H](O)[C@H]2O)[C@@H](O)[C@H](O)[C@H]1O)[C@H]1CC[C@]2(C)[C@@H]1[C@H](O)C[C@@H]1[C@@]3(C)CC[C@H](O[C@@H]4O[C@H](CO)[C@@H](O)[C@H](O)[C@H]4O[C@@H]4O[C@H](CO)[C@@H](O)[C@H](O)[C@H]4O)C(C)(C)[C@@H]3CC[C@]12C` [Rb1], for which the half-inhibitory concentration (IC50) at CYP1A2 was 37.8 µM; at CYP2C9 (setting [4]), above 50 µM; against CYP2C19 it was above 100 µM; against CYP2D6, above 50 µM; at CYP3A4 [1], above 100 µM; on CYP3A4 [2], above 100 µM. For the same molecule, the inhibition at 30 min, 50 µM was 25.2% at CYP2C9 (setting [6]); 20.6% on CYP2C19 (setting [7]); 29.1% at CYP2D6 (setting [5]); 10.1% on CYP3A4 [1] (setting [8]); 4.4% on CYP3A4 [2].
In the case of `CC(C)=CCC[C@](C)(O[C@@H]1O[C@H](CO[C@@H]2OC[C@@H](O)[C@H](O)[C@H]2O)[C@@H](O)[C@H](O)[C@H]1O)[C@H]1CC[C@]2(C)[C@@H]1[C@H](O)C[C@@H]1[C@@]3(C)CC[C@H](O[C@@H]4O[C@H](CO)[C@@H](O)[C@H](O)[C@H]4O[C@@H]4O[C@H](CO)[C@@H](O)[C@H](O)[C@H]4O)C(C)(C)[C@@H]3CC[C@]12C` [Rb3], the IC50 against CYP1A2 is above 100 µM; at CYP2C9 (setting [4]) it was above 50 µM; against CYP2C19 it was above 100 µM; against CYP2D6 it was above 50 µM; against CYP3A4 [1] it was 99.7 µM; at CYP3A4 [2], 68.8 µM. In addition, the inhibition at 30 min, 50 µM at CYP1A2 (setting [3]) worked out at 31.3%; on CYP2C9 (setting [6]), 17.6%; at CYP2C19 (setting [7]), 5%; on CYP2D6 (setting [5]) it was 49.4%.
`CC(C)=CCC[C@](C)(O[C@@H]1O[C@H](CO)[C@@H](O)[C@H](O)[C@H]1O)[C@H]1CC[C@]2(C)[C@@H]1[C@H](O)C[C@@H]1[C@@]3(C)CC[C@H](O)C(C)(C)[C@@H]3[C@@H](O[C@@H]3O[C@H](CO)[C@@H](O)[C@H](O)[C@H]3O[C@@H]3O[C@@H](C)[C@H](O)[C@@H](O)[C@H]3O)C[C@]12C` [Re]: the IC50 on CYP1A2 is above 100 µM; on CYP2C9 (setting [4]), above 50 µM; against CYP2C19, above 100 µM; on CYP2D6, above 50 µM; on CYP3A4 [1], above 100 µM; on CYP3A4 [2], 66.1 µM. In addition, the inhibition at 30 min, 50 µM turned out to be 28.1% at CYP1A2 (setting [3]); 38% on CYP2C9 (setting [6]); 8.8% at CYP2C19 (setting [7]); 44.2% on CYP2D6 (setting [5]); 4.3% on CYP3A4 [1] (setting [8]).
Regarding `CC(C)=CCC[C@](C)(O[C@@H]1O[C@H](CO)[C@@H](O)[C@H](O)[C@H]1O)[C@H]1CC[C@]2(C)[C@@H]1[C@H](O)C[C@@H]1[C@@]3(C)CC[C@H](O)C(C)(C)[C@@H]3[C@@H](O[C@@H]3O[C@H](CO)[C@@H](O)[C@H](O)[C@H]3O)C[C@]12C` [Rg1], the IC50 at CYP1A2 is above 100 µM; on CYP2C9 (setting [4]) it was above 50 µM; against CYP2C19, above 100 µM; at CYP2D6 it was above 50 µM; against CYP3A4 [1] it was above 100 µM; on CYP3A4 [2], above 100 µM. Further, the inhibition at 30 min, 50 µM was 30.2% at CYP1A2 (setting [3]); 21.7% on CYP2C9 (setting [6]); 11.7% on CYP2C19 (setting [7]); 17.7% on CYP2D6 (setting [5]); 8.1% on CYP3A4 [1] (setting [8]); 16.9% at CYP3A4 [2].
For the molecule `CC(C)=CCC[C@](C)(O)[C@H]1CC[C@]2(C)[C@@H]1[C@H](O)C[C@@H]1[C@@]3(C)CC[C@H](O)C(C)(C)[C@@H]3[C@@H](O[C@@H]3O[C@H](CO)[C@@H](O)[C@H](O)[C@H]3O[C@@H]3O[C@@H](C)[C@H](O)[C@@H](O)[C@H]3O)C[C@]12C` [Rg2], the 50% inhibitory concentration (IC50) was above 100 µM at CYP1A2; above 50 µM against CYP2C9; above 100 µM against CYP2C19; above 50 µM against CYP2D6; above 100 µM against CYP3A4 [1]; 47 µM against CYP3A4 [2]. Moreover, the inhibition at 30 min, 50 µM against CYP1A2 was 29.2%; at CYP2C9 it was 20.1%; against CYP2C19, 14.8%; against CYP2D6, 37.2%; at CYP3A4 [1] it was 19.4%.
On to `CC(C)=CCC[C@](C)(O)[C@H]1CC[C@]2(C)[C@@H]1[C@H](O)C[C@@H]1[C@@]3(C)CC[C@H](O[C@@H]4O[C@H](CO)[C@@H](O)[C@H](O)[C@H]4O[C@@H]4O[C@H](CO)[C@@H](O)[C@H](O)[C@H]4O)C(C)(C)[C@@H]3CC[C@]12C` [Rg3], for which the 50% inhibitory concentration (IC50) at CYP1A2 was 32.4 µM; at CYP2C9 (setting [4]), 18.5 µM; against CYP2C19, 47 µM; against CYP2D6 it was 9.3 µM; on CYP3A4 [1] it was 86.4 µM; against CYP3A4 [2] it was 25.2 µM.
Consider `Clc1ccc(COC(Cn2ccnc2)c2ccc(Cl)cc2Cl)c(Cl)c1` (stereo not shown) [miconazole nitrate salt, reference compound], for which the IC50 on CYP2C19 (read-out: IC50 CYP2C19 blue, cDNA-expressed enzyme, Vivid blue substrate 10 µM) turned out to be 0.25 µM.
